From the NIST ThermoML archive (doi:10.1021/je900916e)

Assay: cn = amount concentration of the nth substance listed, in mol/dm3
Details: 101 kPa, Liquid, Advanced Conductivity Orion 162A

C[N+](C)(C)C.O=C([O-])C(F)(F)C(F)(F)C(F)(F)C(F)(F)C(F)(F)C(F)(F)C(F)(F)F [tetramethylammonium perfluorooctanoate] + O
electrical conductivity [S/m]
Details	303.15 K	308.15 K	313.15 K	318.15 K
c1 = 0.001316	–	0.01109	0.01241	0.01322
c1 = 0.002597	–	0.0209	0.0231	0.0253
c1 = 0.003846	–	0.0302	0.0333	0.0367
c1 = 0.005063	–	0.0388	0.0428	0.0466
c1 = 0.00625	–	0.0475	0.0521	0.0564
c1 = 0.007407	–	0.0554	0.0608	0.0659
c1 = 0.008536	–	0.0626	–	0.0745
c1 = 0.008537	–	–	0.0687	–
c1 = 0.009638	–	0.07	0.0765	0.0838
c1 = 0.01071	–	0.077	0.0841	0.0921
c1 = 0.01176	–	0.0828	0.0905	0.0993
c1 = 0.01279	–	0.0888	0.0971	0.1064
c1 = 0.01379	0.0823	0.0918	0.1009	0.1119
c1 = 0.01477	0.0844	0.095	0.1039	0.1156
c1 = 0.01573	0.0864	0.0969	0.1067	0.1188
c1 = 0.01667	0.0884	0.0996	0.1091	0.1218
c1 = 0.01758	–	0.101	–	–
c1 = 0.01803	0.0912	–	0.1125	0.1263
c1 = 0.01848	–	0.1029	–	–
c1 = 0.01935	0.0938	–	0.1158	0.1307
c1 = 0.02021	–	0.1067	–	–
c1 = 0.02063	0.0964	–	0.119	–
c1 = 0.02105	–	–	–	0.1349
c1 = 0.02187	0.0988	–	0.122	–
c1 = 0.02188	–	0.1102	–	–
c1 = 0.02268	–	–	–	0.14
c1 = 0.02347	0.1017	0.1136	0.1258	–
c1 = 0.02424	–	–	–	0.1434
c1 = 0.025	0.1045	0.1168	0.1294	–
c1 = 0.02574	–	–	–	0.1473
c1 = 0.02647	–	0.1208	–	–
